The results in this text go back to article PMC10175918 (Communications Biology, 2023).

Like-named read-outs stand apart in the source and are kept apart here.

Assay in all cases: TGFα-shedding assay-based GPCR screening with chimeric Gα subunit proteins
Common to all, as to assay type: cell-based

Experiment [1] deals with 348 GPCRs (Homo sapiens, UniProt P32745). The following applies: 10µM, Favipiravir 100μM.
Experiment [2] concerns the target T1, 348 GPCRs (Homo sapiens, UniProt P25101).
T1 construct: expressed in transfected cells; host or cells: HEK293A
T1 sequence (P25101 21-427): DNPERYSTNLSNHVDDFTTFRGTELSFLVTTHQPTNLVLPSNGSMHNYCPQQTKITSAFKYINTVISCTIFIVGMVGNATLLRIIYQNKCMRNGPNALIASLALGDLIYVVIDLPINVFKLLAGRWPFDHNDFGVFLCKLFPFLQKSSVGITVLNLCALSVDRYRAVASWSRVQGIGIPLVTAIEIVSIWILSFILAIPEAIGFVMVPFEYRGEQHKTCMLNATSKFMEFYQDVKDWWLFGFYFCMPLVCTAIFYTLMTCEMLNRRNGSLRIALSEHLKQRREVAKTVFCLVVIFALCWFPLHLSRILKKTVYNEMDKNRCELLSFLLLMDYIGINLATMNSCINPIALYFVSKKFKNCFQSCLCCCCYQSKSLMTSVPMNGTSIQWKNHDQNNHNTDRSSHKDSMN
The following applies: 10µM, Favipiravir 100μM.

Experiment [3] addresses T2, 348 GPCRs (Homo sapiens, UniProt O14626).
T2 construct: expressed in transfected cells; host or cells: HEK293A
T2 sequence (O14626 1-319): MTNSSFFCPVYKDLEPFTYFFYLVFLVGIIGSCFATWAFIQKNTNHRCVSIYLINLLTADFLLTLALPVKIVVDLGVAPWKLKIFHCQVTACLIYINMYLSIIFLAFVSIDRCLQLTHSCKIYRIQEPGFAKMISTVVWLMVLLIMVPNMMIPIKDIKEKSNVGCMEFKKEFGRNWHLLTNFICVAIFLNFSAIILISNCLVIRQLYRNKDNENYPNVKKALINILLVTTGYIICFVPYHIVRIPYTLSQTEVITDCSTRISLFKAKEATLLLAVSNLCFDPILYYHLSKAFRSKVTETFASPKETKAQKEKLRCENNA
Conditions: 10µM, Favipiravir 100μM.

In experiment [4] the target is T3, 348 GPCRs (Homo sapiens, UniProt P08908).
T3 construct: expressed in transfected cells; host or cells: HEK293A
T3 sequence (P08908 1-422): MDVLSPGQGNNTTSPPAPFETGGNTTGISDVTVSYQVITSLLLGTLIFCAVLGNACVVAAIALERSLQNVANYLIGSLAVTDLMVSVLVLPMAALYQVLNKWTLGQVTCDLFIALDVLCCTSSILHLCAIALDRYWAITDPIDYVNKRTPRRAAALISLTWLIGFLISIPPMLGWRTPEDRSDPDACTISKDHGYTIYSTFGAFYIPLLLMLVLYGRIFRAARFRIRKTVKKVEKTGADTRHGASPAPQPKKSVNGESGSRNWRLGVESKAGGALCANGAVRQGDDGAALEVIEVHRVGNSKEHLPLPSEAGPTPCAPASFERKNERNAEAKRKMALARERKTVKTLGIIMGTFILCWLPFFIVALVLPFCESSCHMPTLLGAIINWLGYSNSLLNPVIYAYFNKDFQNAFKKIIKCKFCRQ
The following applies: 10µM, Favipiravir 100μM.

The target in experiment [5] is T4, 348 GPCRs (Homo sapiens, UniProt Q9H3N8).
T4 construct: expressed in transfected cells; host or cells: HEK293A
T4 sequence (Q9H3N8 whole entry): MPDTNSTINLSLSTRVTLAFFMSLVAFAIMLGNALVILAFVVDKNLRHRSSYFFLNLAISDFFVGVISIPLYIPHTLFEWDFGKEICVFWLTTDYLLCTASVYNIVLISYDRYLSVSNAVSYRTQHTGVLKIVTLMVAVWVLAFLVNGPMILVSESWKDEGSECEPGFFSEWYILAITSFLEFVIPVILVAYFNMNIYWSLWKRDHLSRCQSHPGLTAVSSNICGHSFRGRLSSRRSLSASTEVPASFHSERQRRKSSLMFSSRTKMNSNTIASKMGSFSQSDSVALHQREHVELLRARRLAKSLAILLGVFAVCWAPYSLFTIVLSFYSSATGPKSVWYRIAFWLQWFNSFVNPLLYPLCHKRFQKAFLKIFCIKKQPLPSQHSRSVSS
Conditions: 10µM, Favipiravir 100μM.

Experiment [6] concerns the target T5, 348 GPCRs (Homo sapiens, UniProt P49190).
T5 construct: expressed in transfected cells; host or cells: HEK293A
The following applies: 10µM, Favipiravir 100μM.

The target in experiment [7] is T6, 348 GPCRs (Homo sapiens, UniProt O43194).
T6 construct: expressed in transfected cells; host or cells: HEK293A
T6 sequence (O43194 1-453): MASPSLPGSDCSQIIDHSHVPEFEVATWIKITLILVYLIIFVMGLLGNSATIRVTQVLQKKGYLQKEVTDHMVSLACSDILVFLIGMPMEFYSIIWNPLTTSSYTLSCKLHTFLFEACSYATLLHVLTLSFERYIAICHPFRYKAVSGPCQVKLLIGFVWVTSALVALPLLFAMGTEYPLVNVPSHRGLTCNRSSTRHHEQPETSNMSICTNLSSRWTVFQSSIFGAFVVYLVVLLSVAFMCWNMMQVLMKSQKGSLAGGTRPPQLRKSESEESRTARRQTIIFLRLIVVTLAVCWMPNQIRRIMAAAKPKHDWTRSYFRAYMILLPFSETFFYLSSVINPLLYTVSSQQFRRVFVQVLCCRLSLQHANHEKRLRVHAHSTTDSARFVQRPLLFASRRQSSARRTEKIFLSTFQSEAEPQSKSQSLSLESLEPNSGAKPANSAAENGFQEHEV

Experiment [8] concerns the target 348 GPCRs (Homo sapiens, UniProt P25103). The following applies: 10µM, Favipiravir 100μM.
For experiment [9], the target named is T7, 348 GPCRs (Homo sapiens, UniProt Q5NUL3).
T7 construct: expressed in transfected cells; host or cells: HEK293A
T7 sequence (Q5NUL3 1-361): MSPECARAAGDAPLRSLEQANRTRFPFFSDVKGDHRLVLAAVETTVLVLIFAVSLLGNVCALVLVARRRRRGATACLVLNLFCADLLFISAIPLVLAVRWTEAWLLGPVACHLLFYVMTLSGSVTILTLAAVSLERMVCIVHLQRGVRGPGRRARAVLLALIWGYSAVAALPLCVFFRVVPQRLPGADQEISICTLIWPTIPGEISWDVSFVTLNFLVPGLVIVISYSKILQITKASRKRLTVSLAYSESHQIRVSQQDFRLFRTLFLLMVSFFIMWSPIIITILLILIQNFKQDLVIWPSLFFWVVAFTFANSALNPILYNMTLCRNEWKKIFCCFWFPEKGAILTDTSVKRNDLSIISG

For experiment [10], the target named is 348 GPCRs (Homo sapiens, UniProt P61073).
Sequence of 348 GPCRs (Homo sapiens, UniProt P61073) (P61073 whole entry): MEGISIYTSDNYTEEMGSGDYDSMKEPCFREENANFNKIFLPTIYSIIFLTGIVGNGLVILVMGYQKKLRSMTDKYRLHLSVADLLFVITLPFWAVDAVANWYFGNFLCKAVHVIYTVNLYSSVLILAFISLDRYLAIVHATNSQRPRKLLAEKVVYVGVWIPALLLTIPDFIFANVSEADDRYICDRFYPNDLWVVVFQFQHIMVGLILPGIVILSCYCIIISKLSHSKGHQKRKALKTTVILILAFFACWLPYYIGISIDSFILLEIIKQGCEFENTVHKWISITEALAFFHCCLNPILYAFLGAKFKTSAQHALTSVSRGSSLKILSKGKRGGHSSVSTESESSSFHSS
The mark [11] stands for this setting: SSTR3 (somatostatin receptor 3), read-out: % GPCR activation compared to TPA.
The mark [12] stands for this setting: EDNRA (endothelin receptor type A), read-out: % GPCR activation compared to TPA.
The mark [13] stands for this setting: GPR171 (G Protein-Coupled Receptor 171), read-out: % GPCR activation compared to TPA.
Setting [14] is: 5-HT1A (5-hydroxytryptamine receptor 1A), read-out: % GPCR activation compared to TPA.
Setting [15] is: H4 (histamine receptor H4), read-out: % GPCR activation compared to TPA.
The mark [16] stands for this setting: PTH2R (parathyroid hormone 2 receptor), read-out: % GPCR activation compared to TPA.
Where [17] appears, read: GPCR GPR39 (G Protein-Coupled Receptor 39), read-out: % GPCR activation compared to TPA.
Setting [18] is: NK1 (tachykinin receptor 1), read-out: % GPCR activation compared to TPA.
The mark [19] stands for this setting: FFA4 (free fatty acid receptor 4), Favipiravir 100μM, read-out: % GPCR activation compared to TPA.
[20] abbreviates: GPCR GPR120 (Free Fatty Acid Receptor 4 (FFAR4)), read-out: % GPCR activation compared to TPA.
The mark [21] stands for this setting: GPCR CXCR4 (chemokine (C-X-C motif) receptor 4), read-out: % GPCR activation compared to TPA.
Setting [22] is: read-out: % GPCR activation compared to TPA, SSTR3 (somatostatin receptor 3).
[23] abbreviates: read-out: % GPCR activation compared to TPA, EDNRA (endothelin receptor type A).
The mark [24] stands for this setting: read-out: % GPCR activation compared to TPA, GPR171 (G Protein-Coupled Receptor 171).
Where [25] appears, read: read-out: % GPCR activation compared to TPA, 5-HT1A (5-hydroxytryptamine receptor 1A).
Setting [26] is: read-out: % GPCR activation compared to TPA, H4 (histamine receptor H4).
Where [27] appears, read: read-out: % GPCR activation compared to TPA, PTH2R (parathyroid hormone 2 receptor).
[28] abbreviates: read-out: % GPCR activation compared to TPA, GPCR GPR39 (G Protein-Coupled Receptor 39).
[29] abbreviates: read-out: % GPCR activation compared to TPA, NK1 (tachykinin receptor 1).
The mark [30] stands for this setting: read-out: % GPCR activation compared to TPA, FFA4 (free fatty acid receptor 4), Favipiravir 100μM.
Setting [31] is: read-out: % GPCR activation compared to TPA, GPCR GPR120 (Free Fatty Acid Receptor 4 (FFAR4)).
Setting [32] is: read-out: % GPCR activation compared to TPA, GPCR CXCR4 (chemokine (C-X-C motif) receptor 4).

Sequence of 348 GPCRs (Homo sapiens, UniProt P32745) (P32745 whole entry): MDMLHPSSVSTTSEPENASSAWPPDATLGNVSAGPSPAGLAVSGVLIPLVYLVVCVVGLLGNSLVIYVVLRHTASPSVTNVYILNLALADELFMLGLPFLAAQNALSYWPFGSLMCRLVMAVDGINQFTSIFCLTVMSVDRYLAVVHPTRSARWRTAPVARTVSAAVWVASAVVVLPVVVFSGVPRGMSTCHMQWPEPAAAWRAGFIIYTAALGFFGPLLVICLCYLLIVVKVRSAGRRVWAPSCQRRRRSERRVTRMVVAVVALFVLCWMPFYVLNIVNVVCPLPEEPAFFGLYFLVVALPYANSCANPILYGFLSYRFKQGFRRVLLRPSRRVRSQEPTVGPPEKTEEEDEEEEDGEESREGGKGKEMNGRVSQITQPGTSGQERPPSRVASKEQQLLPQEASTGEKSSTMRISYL
Sequence of 348 GPCRs (Homo sapiens, UniProt P25103) (P25103 whole entry): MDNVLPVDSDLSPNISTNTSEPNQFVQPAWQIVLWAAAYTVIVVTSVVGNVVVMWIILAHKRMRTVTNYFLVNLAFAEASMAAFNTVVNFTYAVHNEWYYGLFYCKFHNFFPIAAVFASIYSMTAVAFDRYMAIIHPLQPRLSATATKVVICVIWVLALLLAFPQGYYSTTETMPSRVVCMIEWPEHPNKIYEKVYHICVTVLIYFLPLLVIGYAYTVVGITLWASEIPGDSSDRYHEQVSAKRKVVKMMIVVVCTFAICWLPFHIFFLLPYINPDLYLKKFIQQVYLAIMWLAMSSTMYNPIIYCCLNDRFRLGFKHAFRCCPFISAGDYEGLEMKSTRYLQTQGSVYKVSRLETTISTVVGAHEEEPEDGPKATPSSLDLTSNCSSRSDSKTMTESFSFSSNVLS
T5 sequence (P49190 25-550): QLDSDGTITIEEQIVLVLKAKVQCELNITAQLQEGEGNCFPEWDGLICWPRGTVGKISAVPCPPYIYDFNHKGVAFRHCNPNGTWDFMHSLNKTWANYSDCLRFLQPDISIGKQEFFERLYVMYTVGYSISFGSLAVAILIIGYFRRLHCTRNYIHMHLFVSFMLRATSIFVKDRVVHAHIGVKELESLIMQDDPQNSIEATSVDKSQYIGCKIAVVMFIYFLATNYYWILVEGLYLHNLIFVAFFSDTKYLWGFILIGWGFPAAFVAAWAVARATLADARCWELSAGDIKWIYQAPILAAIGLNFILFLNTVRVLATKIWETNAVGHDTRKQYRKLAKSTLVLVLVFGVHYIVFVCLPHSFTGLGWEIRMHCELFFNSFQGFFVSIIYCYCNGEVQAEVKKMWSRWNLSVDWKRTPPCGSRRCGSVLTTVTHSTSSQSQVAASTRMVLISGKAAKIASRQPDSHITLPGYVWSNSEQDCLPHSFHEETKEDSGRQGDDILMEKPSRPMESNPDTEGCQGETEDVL

For the compound `CC(C)C(=O)OC[C@H]1O[C@@H](n2ccc(NO)nc2=O)[C@H](O)[C@@H]1O` [molnupiravir], the activation at 10 µM in experiment [1] (setting [11]) was -1.25%; in [3] (setting [13]) it was -2.4%; in experiment [4] (setting [14]), -1.27%; in experiment [7] (setting [17]), -11.5%; in experiment [8] (setting [18]), 1.66%; in experiment [9] (setting [19]), -1.75%. The activation at 10 µM was -1.23% in [9] (setting [20]) and -1.55% in [10] (setting [21]). For the same compound, the activation at 100 µM in experiment [2] (setting [12]) was 0.536%; in [5] (setting [15]) it was -3.71%; in [6] (setting [16]) it was -0.481%.
Regarding `CC(C)OC(=O)[C@H](C)N[P@](=O)(OC[C@H]1O[C@@H](n2ccc(=O)[nH]c2=O)[C@](C)(F)[C@@H]1O)Oc1ccccc1` [sofosbuvir], the activation at 10 µM in experiment [1] (setting [22]) was -1.81%; in [3] (setting [24]), -0.832%; in experiment [4] (setting [25]), -0.274%; in [7] (setting [28]) it was -4.93%; in [8] (setting [29]), -1.29%; in [9] (setting [30]) it was -2.55%. For the same compound, the values for the activation at 10 µM in experiment [9] (setting [31]) and in [10] (setting [32]) were -1.1% and 1.3%, respectively. The activation at 100 µM in experiment [2] (setting [23]) is 2.91%; in experiment [5] (setting [26]), -3.28%; in experiment [6] (setting [27]), -1.19%.
Turning to `N#C[C@@]1(c2ccc3c(N)ncnn23)O[C@H](CO)[C@@H](O)[C@H]1O` [GS441524], the activation at 10 µM in experiment [1] (setting [11]) is 3.54%; in [3] (setting [13]), -1.42%; in experiment [4] (setting [14]), -0.48%; in [7] (setting [17]), -9.02%; in experiment [8] (setting [18]) it was -0.668%; in [9] (setting [19]) it was -7.33%. The values for the activation at 10 µM in experiment [9] (setting [20]) and in experiment [10] (setting [21]) were 0.817% and -0.228%, respectively. In addition, the activation at 100 µM in experiment [2] (setting [12]) is 2.17%; in [5] (setting [15]), 5.54%; in experiment [6] (setting [16]) it was -1.76%.
Consider `NC(=O)c1nc(F)cnc1O` [favipiravir, 6-fluoro-3-hydroxy-2-pyrazinecarboxamide], for which the activation at 10 µM in experiment [1] (setting [11]) is 1.41%; in [3] (setting [13]) it was -0.909%; in experiment [4] (setting [14]), -0.504%; in experiment [8] (setting [18]), -3.44%; in experiment [9] (setting [19]), -8.27%. Also, the activation at 100 µM in experiment [2] (setting [12]) is 0.818%; in [5] (setting [15]), 1.77%; in [6] (setting [16]), 0.392%; in [7] (GPCR GPR39 (G Protein-Coupled Receptor 39), 100μM, read-out: % GPCR activation compared to TPA), -6.36%; in experiment [9] (GPCR GPR120 (Free Fatty Acid Receptor 4 (FFAR4)), 100μM, read-out: % GPCR activation compared to TPA), -1.72%; in experiment [10] (GPCR CXCR4 (chemokine (C-X-C motif) receptor 4), 100μM, read-out: % GPCR activation compared to TPA) it was -0.773%.
On to `CCC(CC)COC(=O)[C@H](C)N[P@](=O)(OC[C@H]1O[C@@](C#N)(c2ccc3c(N)ncnn23)[C@H](O)[C@@H]1O)Oc1ccccc1` [remdesivir], for which the activation at 10 µM in experiment [1] (setting [22]) was 3.89%; in experiment [3] (setting [24]) it was 2.61%; in experiment [4] (setting [25]), 1.91%; in experiment [7] (setting [28]) it was 2.25%; in experiment [8] (setting [29]) it was -0.867%; in experiment [9] (setting [30]) it was -7.9%. For the same compound, the activation at 10 µM in experiment [9] (setting [31]) turned out to be 1.09%; in [10] (setting [32]), 1.64%. Also, the activation at 100 µM in experiment [2] (setting [23]) is -0.597%; in experiment [5] (setting [26]), 7.16%; in experiment [6] (setting [27]), 0.518%.
